“Also recorded” adds a separate entry of the source.
Legend:
p21 and NOXA = assay: Immunoblots of apoptotic proteins after PRIMA-1MET; type: cell-based, human; settings: TP53-mutated, 20 uM, 6, 12 and 24 hours
Protocol: FIGS. 5A and 5B are quantitative representations of immunoblots of apoptotic proteins with three ALT+ cell lines and two TERT+ lines. All cell lines were treated with 20 uM of PRIMA-1MET for 6, 12 and 24 hours. All cell lines were known to have TP53-inactivating mutations. […] We hypothesize this is due to the constitutive activation of ATM in ALT positive cell lines, which will trigger senescence and apoptosis once PRIMA-1MET refolds mutant TP53.

[1] = system: ALT+ neuroblastoma cell lines; assay: DIMSCAN cytotoxicity, neuroblastoma cell lines; type: cell-based, human
Protocol: FIG. 6 is a graph of survival fraction versus PRIMA-1MET concentration and illustrates high cytotoxicity of PRIMA-1MET in ALT+ versus TERT+(ALT negative) NB cell lines. FIG. 6 illustrates NB 5% O2. PRIMA-1MET dose response curves were analyzed using the DIMSCAN cytotoxicity assay system in 4 ALT+ neuroblastoma cell lines compared to 3 non-ALT, but TP53-mut cell lines.
FIGS. 7A and 7B are graphs of survival fraction versus PRIMA-1MET concentration and illustrate cytotoxicity of PRIMA-1MET in ALT+NB cell lines as enhanced by hypoxia. PRIMA-1MET cytotoxicity was assessed for 3 ALT neuroblastoma cell lines in ambient air culture conditions (20% O2) compared with bone marrow level hypoxia (5% O2).

[2] = system: ALT rhabdomyosarcoma cell lines; assay: DIMSCAN cytotoxicity, rhabdomyosarcoma cell lines; type: cell-based, human; settings: 5% O2
Protocol: FIGS. 8A and 8B are graphs of survival fraction versus PRIMA-1MET concentration and illustrate Cytotoxicity of PRIMA-1MET in ALT vs TERT+ Rhabdomyosarcoma. FIG. 8A illustrates ALT+ rhabdomyosarcoma grown in 5% O2 and FIG. 8B illustrates TERT+ rhabdomyosarcoma grown in 5% O2. Cytotoxicity of PRIMA-1MET was assessed for ALT and non-ALT (TERT+) rhabdomyosarcoma cell lines using DIMSCAN.

[3] = system: ALT lymphoma cell lines TX-LY-064hnb, TX-LY-245h, COG-LY-357h; assay: DIMSCAN cytotoxicity, lymphoma cell lines; type: cell-based, human; settings: vs TERT+ lines SUP-TI and COG-LY-459, 5% O2, p53 dysfunction
Excerpt: FIGS. 9A and 9B are graphs of survival fraction versus PRIMA-1MET concentration for ALT+p53 non-functional lymphoma 5% O2 and TERT+p53 non-functional lymphoma 5% O2, respectively. […] All lines had some form of p53 dysfunction.

[4] = system: ALT+ p53 non-functional adult cell lines; assay: Cytotoxicity, ALT+ adult cell lines; type: cell-based, human; settings: 5% O2
Excerpt: FIG. 10 is a graph of survival fraction versus PRIMA-1MET concentration for ALT+ adult cell lines showing the high activity of PRIMA1MET against ALT breast cancer, colorectal cancer, ovarian cancer, lung cancer, and leiomyosarcoma cell lines;
FIG. 10 is a graph of survival fraction versus PRIMA-1MET concentration for ALT+p53 non-functional adult cell lines 5% O2. All lines had some form of p53 dysfunction.

[5] = system: ALT cell lines from various histologies; assay: Summary of cytotoxicity (IC50/IC90), ALT vs non-ALT cell lines of all histologies; type: cell-based, human
Excerpt: […] are graphs of PRIMA-1MET cytotoxicity of ALT vs non-ALT cell lines and illustrate PRIMA-1MET IC50/IC90 for all tested cancers. FIG. 8A illustrates IC50 20% O2, and FIG. 8B illustrates IC90 20% O2. IC50 5% O2, and IC90 5% O2 were also observed. Cytotoxicity data on all ALT cell lines from various histologies were compared with non-ALT cell lines of the same histologies, presented as inhibitory+cytotoxic concentrations for 50% (IC50) and 90% (IC90) of the cells.
FIGS. 11A and 11B are graphs showing cytotoxicity of ALT and non-ALT cell lines for IC50 and IC90. Cytotoxicity data on all ALT cell lines from various histologies compared with non-ALT cell lines of the same histologies. The data is presented as inhibitory+cytotoxic concentrations for 50% (IC50) and 90% (IC90) of the cells.

[6] = system: ALT neuroblastoma cell line CHLA-90; assay: PRIMA-1MET sensitivity after shRNA knockdown of ATM; type: cell-based, human
Excerpt: FIGS. 20A and 20B illustrate data for cell line CHLA-90. shRNA knockdown of ATM in the ALT neuroblastoma cell line CHLA-90 led to hyper-resistance to PRIMA-1MET. We hypothesize this is due to the loss of constitutive activation of ATM in ALT positive cell lines which would trigger senescence and apoptosis once PRIMA-1MET refolds mutant p53 in the presence of ATM.

ALT+ cell lines = assay: PRIMA-1MET IC50 with ATM or ATR kinase inhibitor, ALT+ lines; type: cell-based, human; settings: with ATM kinase inhibitor (ATMi) or ATR kinase inhibitor (ATRi)
Excerpt: (§1) FIGS. 21A and 21B illustrate effect of inhibition of ATM or ATR kinase on sensitivity of ALT+vs TERT+(ALT-negative) using ATM kinase inhibitor (ATMi) or ATR kinase inhibitor (ATRi) ir ALT+ and TERT+ cell lines;
(§2) FIGS. 21A and 21B illustrate inhibition of kinase inhibitors for ALT+ and TERT+ cell lines Kinase Inhibitors antagonize PRIMA-1MET in ALT+ cell lines.

TERT+ cell lines = assay: PRIMA-1MET IC50 with ATM or ATR kinase inhibitor, TERT+ lines; type: cell-based, human; settings: with ATM kinase inhibitor (ATMi) or ATR kinase inhibitor (ATRi)
Excerpt: as §1, §2

[7] = system: ALT+ neuroblastoma xenografts CHLA-90m and COG-N-669x; assay: ALT neuroblastoma xenografts, tumor volume; parameters: species or system athymic nude mice; settings: mouse, in vivo
Protocol: FIGS. 22A and 22B are graphs tumor volume versus time for CHLA-90m and COG-N-669x. The neuroblastoma cell lines CHLA-90m and COG-N-669x were injected into athymic nude mice and drugged with PRIMA-1Met and BSO.

[8] = cited from earlier work
[9] = system: ALT neuroblastoma cell lines; assay: PRIMA-1 activity in neuroblastoma cell lines, ALT vs non-ALT; type: cell-based, human; settings: ALT vs TP53-mutated non-ALT neuroblastoma cell lines
Excerpt: Neuroblastoma provides a unique cancer for studying the role of changes that lead to inactivation of p53, such as TP53 inactivating mutations. This is because, unlike many other cancers, neuroblastomas at diagnosis and before therapy most frequently are p53 functional and there is a very low incidence of TP53 mutations. However, the incidence of p53 loss-of-function (often by TP53 mutation) increases in progressive disease after therapy. Because PRIMA-1 was developed as a drug that could restore p53 function to tumors with TP53 mutations, we assessed the activity of PRIMA-1 in neuroblastoma cell lines. Our panel of neuroblastoma cell lines includes p53-functional cell lines and those that have p53 loss-of-function and lines with TP53 mutations. The panel includes cell lines with TP53 mutations that are telomerase-positive (high TERT expression) and also TERT-low ALT (C-circle-positive) cell lines.
We have determined that the C-circle assay (specific for ALT cancers) identifies cancers that are especially responsive to PRIMA-1. While PRIMA-1 and APR-246 are being developed to treat TP53-mutated caners, only a subset of the latter respond to the drug as shown in preclinical studies and in the early phase I clinical trials. […]

ALT cell lines = assay: PRIMA-1 activity in ALT cell lines from cancers other than neuroblastoma; type: cell-based, human; settings: all ALT cell lines examined to date

For COCC1(CO)C(=O)C2CCN1CC2 (stereo not drawn) [PRIMA-1MET], the NOXA expression (p21 and NOXA; three ALT+ cell lines) was “NOXA expression during longer treatment”, the p21 expression (p21 and NOXA; three ALT+ cell lines) was “substantial increase” and the NOXA expression (p21 and NOXA; two non-ALT (TERT+) cell lines) was “very little increase”. For the same compound, the p21 expression (p21 and NOXA; two non-ALT (TERT+) cell lines) was “very little increase”, the “cytotoxicity in hypoxia vs ambient air” value ([1]; 3 ALT neuroblastoma cell lines, 5% O2 compared with 20% O2) was “even great cytotoxicity” and the “sensitivity (survival fraction), ALT vs non-ALT neuroblastoma” value ([1]; 4 ALT+ vs 3 non-ALT TP53-mut cell lines, 5% O2) was “significantly more sensitive”. For the same compound, the “sensitivity (survival fraction), ALT vs non-ALT rhabdomyosarcoma” value [2] was “more sensitive”, the “sensitivity (survival fraction), ALT vs TERT+ lymphoma” value [3] was “more sensitive” and the “activity against ALT breast, colorectal, ovarian, lung cancer and leiomyosarcoma cell lines” value [4] was “high activity”. For the same compound, the “sensitivity by IC50 and IC90, ALT vs non-ALT cell lines” value ([5]; all tested histologies) was “significantly more sensitive”, the “ALT vs non-ALT difference in IC50/IC90 in hypoxia” value ([5]; bone marrow level hypoxia (5% O2) vs 20% O2) was “differences were greater” and the “response to PRIMA-1MET after ATM knockdown” value [6] was “hyper-resistance”. For the same compound, the “change of IC50 with kinase inhibitors” value (ALT+ cell lines) was “greatly increases”, the “change of IC50 with kinase inhibitors” value (TERT+ cell lines) was “little effect” and the “tumor volume, single agent relative to control” value [7] was “greater amount of activity”. For the same compound, the plasma levels ([8]; at the maximally tolerated dose, out to ~12 hours) was greater than 10 µg/mL, the maximally tolerated dose ([8]; phase I, hematological malignancies and hormone-refractory prostate cancer) was 60 μg/m^2 and the bone marrow toxicity ([8]; phase I) was “not observed”. The “most common adverse events” value ([8]; phase I) was “dizziness, headache, confusion, and other neurological complications”.

In the case of O=C1C2CCN(CC2)C1(CO)CO [PRIMA-1], the “activity of PRIMA-1 in ALT vs non-ALT neuroblastoma” value [9] is reported as “significantly greater in ALT neuroblastoma cell lines; also recorded: significantly higher in ALT neuroblastoma” and the “sensitivity of ALT cell lines to PRIMA-1” value (ALT cell lines) is reported as “highly sensitive”.
